Values quoted from earlier work in patent publication US20140107223A1, “TOPICAL UBIQUINOL SUPPLEMENT SKIN CARE COMPOSITIONS” (WHITEHILL ORAL TECHNOLOGIES, INC., priority 2012, published 2014).

What was measured:
[1] = test system: human monocytic cellline THP-1; details: LPS-stimulated THP-1
[2] = not given; remark: listed apart in the source
[3] = 150 mg capsule/day for two months
[4] = test system: CRP concentrations; details: dietary supplementation, healthy baboons
[5] = topical once weekly via syringe for six weeks, combined with mechanical debridement

For `COc1c(O)c(C)c(C/C=C(\C)CC/C=C(\C)CC/C=C(\C)CC/C=C(\C)CC/C=C(\C)CC/C=C(\C)CC/C=C(\C)CC/C=C(\C)CC/C=C(\C)CCC=C(C)C)c(O)c1OC` [UBIQUINOL], the “effect on inflammatory cytokines and chemokines in vitro” value [1] is given as “anti-inflammatory effects”, the bioavailability versus ubiquinone (oral) is given as “greater bioavailability than ubiquinone” and the “time to steady-state concentrations” value (oral administration) is given as “two”. For the same compound, the “time required to reach peak concentration” value (oral administration, absorption from the gastrointestinal tract) was “approximately 6 hours”, the peak blood values (oral, 150 mg per day in a softgel, within 28 days) was 3.84 µg/mL and the water solubility [2] was “less than 0.1 mg/ml”. For the same compound, the “effect on oral environment for periodontal disease” value [3] was “is effective in improving oral environment for periodontal disease”.
In the case of Vitamin E, the “baseline inflammatory status indicated by CRP concentrations” value [4] is listed as “reduces baseline inflammatory status”.
For `COC1=C(OC)C(=O)C(C/C=C(\C)CC/C=C(\C)CC/C=C(\C)CC/C=C(\C)CC/C=C(\C)CC/C=C(\C)CC/C=C(\C)CC/C=C(\C)CC/C=C(\C)CCC=C(C)C)=C(C)C1=O` [CoQ10, coenzyme Q10], the “baseline inflammatory status indicated by CRP concentrations” value [4] is listed as “significantly enhances this anti-inflammatory effect” and the bleeding on probing [5] is listed as “no bleeding at six weeks”.
